Experimental data published in publication PMC11400633, “Peptides inhibiting the assembly of monomeric human L‐lactate dehydrogenase into catalytically active homotetramer decrease the synthesis of lactate in cultured cells” (Protein Science : A Publication of the Protein Society, 2024).
Where “and” joins values, the source holds several entries; their conditions need not be identical. Identical values can stand only once. Like-named read-outs stand apart in the source and are kept apart here. [ ]: non-standard residue; d: D form. The star is where a group is joined. OBn = c1ccc(CO*)cc1

Columns and labels:
[1] = molecular target: T1, tetrameric LDH‐A (Homo sapiens, UniProt P00338); assay: Steady-state kinetics of pyruvate reduction by tetrameric LDH-A; type: biochemical; settings: variable pyruvate, 125 μM β-NADH, 2.56 nM tetramer, pH 7.5, 25°C
T1 construct: made in house; host or cells: E. coli BL21(DE3), pET9a (NdeI/BamHI)
Description: (§1) To further characterize the catalytic action of monomeric LDH-A exposed to β-NADH and pyruvate, and therefore assembled into tetramer (cf. […] In addition, the kinetics of pyruvate reduction catalyzed by tetrameric LDH-A was assayed under the same conditions used for the monomeric enzyme. Structurally and functionally speaking, the availability of monomeric LDH-A does indeed provide an unprecedented and quite interesting tool to perform quantitative tests of the assembly of monomers into the corresponding catalytically active tetramer. […] In addition to this, the enzyme kinetic parameters were also determined testing reaction velocity as a function of β-NADH concentration, in the presence of 500 μM pyruvate. […] The continuous lines represent the best fit of the Michaelis-Menten equation to the experimental observations. […] The continuous lines represent the best fit of the Michaelis-Menten equation to the experimental observations. (c) Kinetic parameters determined by performing activity assays using monomeric or tetrameric LDH-A, at the indicated final concentrations. Under conditions of variable pyruvate concentration, β-NADH was always used at 125 μM. When reaction mixtures contained variable concentrations of the redox cofactor, pyruvate was invariably added at 500 μM. All the assays were performed at pH 7.5 (Tris-BisTris, 10 mM each.

[2] = molecular target: T2, monomeric human LDH‐A (Homo sapiens, UniProt P00338); assay: Steady-state kinetics of pyruvate reduction by monomeric LDH-A (assembled monomers); type: biochemical; settings: variable pyruvate, 125 μM β-NADH, 9.80 nM monomer, pH 7.5, 25°C
T2 construct: made in house; host or cells: E. coli BL21(DE3), pET9a (NdeI/BamHI)
Description: as §1

[3] = molecular target: T1, tetrameric LDH‐A; settings: previous observation, cited from earlier work
From the text: Accordingly, monomeric LDH‐A features a rather high K m for pyruvate and, as previously mentioned, we interpret this feature as indicative of a secondary site for pyruvate, possibly engaged in the stabilization of the assembled tetramer.

[4] = molecular target: T2, monomeric human LDH‐A; assay: Inhibition by peptides of LDH-A activity gained on assembly of monomeric LDH-A into tetramer; type: biochemical; settings: 80 μM peptide incubated 5 min with 6.2 nM monomeric LDH-A, 10 mM Tris-HCl + 10 mM BisTris pH 7.5, started with 125 μM β-NADH and 500 μM pyruvate, 25°C, A340, vs control with 1% DMSO, mean ± SD, n = 3
Description: (§2) In particular, all the peptides were tested at 80 μM (final concentration), and the LDH activity detected in their presence was compared with the catalytic action observed with control samples devoid of any peptide. First, we decided to assay the octameric peptide TH1, the primary structure of which ([…]) is identical to the LDH‐A region spanning residues 295–302. […] Indeed, the catalytic action exerted by 6 nM tetrameric LDH‐A (in 10 mM Tris–HCl, pH 7.5, containing 150 mM NaCl) was determined as equal to 433 ± 11 and 452 ± 19 nM/s in the absence and in the presence of 80 μM TH1 octapeptide, respectively. Overall, this insensitivity along with the significant effect elicited by TH1 on monomeric LDH‐A indicate that the octapeptide inhibits the assembly of LDH‐A monomers into the corresponding, catalytically active, tetramer. To dissect the inhibition triggered by TH1 on monomeric LDH‐A, we decided to evaluate: (i) whether or not the two halves of the octapeptide, that is, GQNG and ISDL, are equally competent in inhibiting LDH‐A; (ii) the action of linear and cyclic peptides, containing or not D amino acids; and (iii) the effect, if any, triggered by the presence of protecting groups in the peptides to be assayed. It should be noted that to allow the cyclization of tetrapeptide GQNG while maintaining a terminal carboxylic group, the sequence was modified to GQND, while for the cyclization of ISDL while maintaining a terminal amino group, the sequence was modified into KSDL (Table 1).
FIGURE 8 Inhibition exerted by linear and cyclic peptides on LDH‐A activity detected in vitro. […] The gray bars (in “a” and “d”) represent the activity observed in the presence of the same volume of DMSO (1%, v/v) carried to the assay mixtures by the peptides to be tested. (a–c) The effect, if any, of tetrameric peptides featuring the GQND primary structure (see also Table 1) on LDH‐A activity is shown. The inhibition exerted by the octameric peptide TH1 is also reported in “a.” The enzyme activity observed in the presence of linear or cyclic peptides is shown in “b” and “c”, respectively. (d) Extent of LDH‐A activity detected in the presence of linear or cyclic tetrapeptides featuring the KSDL primary structure. Error bars represent SD (n = 3). The experimental observations were compared by Student's t‐test. The ***, **, and * symbols denote p values lower than 0.001, 0.01, and […], respectively. (e) Simulation of the association between the TH2 peptide and monomeric LDH‐A. Predicted interactions between the cyclopeptide c[GQN‐isoD] (TH2) and the N‐terminal sequence Y^9[…]^19, as simulated by molecular dynamics in a box of explicit TIP3P water molecules; gray and red dotted lines represent hydrogen bonds and salt bridges, respectively.
All the assays were performed at 25°C using a Cary 300 Bio spectrophotometer.

[5] = test system: MCF7 cells; assay: Colorimetric assay of lactate secretion by MCF7 cells (expressing LDH-A); type: cell-based, human; settings: for decrease of the concentration of secreted lactate: MCF7, 80 μM peptide with Lipofectamine 2000 (0.5% v/v), 1% DMSO, Krebs-Ringer buffer, 4 h, 37°C, colorimetric, n = 3, vs cells without peptide
From the text: Having identified peptides able to interfere with the assembly of monomeric LDH‐A into catalytically active tetramer, we considered of interest to test the action of peptides against LDH‐A expressed in human cell lines. In particular, we analyzed the lactate secreted by cultured human cells exposed or not to the peptides better performing as inhibitors of LDH‐A in vitro, that is, TH1, TH2, and TH16. Moreover, we used two different cell lines exclusively expressing LDH‐A or LDH‐B, that is, MCF7 and BxPC3, respectively. In MCF7 cells, the [mRNALDH‐A]/[mRNALDH‐B] ratio is indeed equal to ca. 150 (Figure 9a), whereas in BxPC3 cells the messenger coding for LDH‐A was not detected (Figure 9a). Therefore, by comparing the decrease, if any, of the lactate concentration secreted by these two cell lines the selectivity of peptides acting against LDH‐A or LDH‐B can be conveniently estimated. When the MCF7 cell line is considered, the linear TH16 and the cyclic TH2 tetrapeptide performed equally, being both responsible for a concentration of secreted lactate 20% lower than that detected in their absence (Figure 9b). […] Accordingly, it seems likely that lipofectamine is effective in assisting the penetration of the TH16 and TH2 peptides into cells, with this action of lipofectamine being much weaker when dealing with a larger molecule, that is, an octapeptide.
To evaluate the competence of peptides in inhibiting the action of LDH‐A in cultured cells, two human cell cultures were used: MCF7 and BxPC3, isolated from breast and pancreatic adenocarcinoma, respectively. Cultures were grown in DMEM (MCF7) or RPMI medium (BxPC3), supplemented with 100 U/ml penicillin/streptomycin, 2 mM glutamine and 10% (v/v) FBS. All the components of the media used for cell culture were obtained from Merck‐Millipore.
The competence of peptides in inhibiting LDH in cultured cells was tested by assessing the concentration of lactate released by MCF7 and BxPC3 cell cultures. To this aim, cells were seeded in duplicate in 24‐wells plates (2 × 10^5/well) and let to adhere overnight; the culture medium was then replaced by Krebs‐Ringer buffer (300 μl/well). Stock solutions of peptides (8 mM in DMSO) were diluted in Krebs‐Ringer buffer to a final concentration of 640 μM and mixed with an equal volume of 4% (v/v, in Krebs‐Ringer buffer) Lipofectamine 2000 (Invitrogen). The final solution was thoroughly mixed, kept for 25 min at room temperature, and finally 100 μl were added to each plate well, obtaining a final peptide concentration equal to 80 μM. The concentration of lactate released in the Krebs–Ringer buffer was determined after 4 h of incubation at 37°C, using the colorimetric assay previously reported (Rossi et al., [2023]). Each experiment was performed in triplicate and included control samples consisting of untreated cell cultures exposed to the same final concentration of DMSO (1%, v/v) and Lipofectamine (0.5%, v/v) to which were exposed the samples treated with peptides.

[6] = molecular target: T1, tetrameric LDH‐A; assay: Activity assay of tetrameric LDH-A in the presence of peptide; type: biochemical; settings: 6 nM tetrameric LDH-A, 10 mM Tris-HCl pH 7.5, 150 mM NaCl, 80 μM peptide
Description: as §2, with “It should be noted that to allow the cyclization of tetrapeptide GQNG while maintaining a terminal carboxylic group, the sequence was modified to GQND, while for the cyclization of ISDL while maintaining a terminal amino group, the sequence was modified into KSDL (Table 1).” left out

[7] = test system: BxPC3 cells; assay: Colorimetric assay of lactate secretion by BxPC3 cells (expressing LDH-B); type: cell-based, human; settings: BxPC3, 80 μM peptide with Lipofectamine 2000 (0.5% v/v), 1% DMSO, Krebs-Ringer buffer, 4 h, 37°C, n = 3
From the text: Having identified peptides able to interfere with the assembly of monomeric LDH‐A into catalytically active tetramer, we considered of interest to test the action of peptides against LDH‐A expressed in human cell lines. In particular, we analyzed the lactate secreted by cultured human cells exposed or not to the peptides better performing as inhibitors of LDH‐A in vitro, that is, TH1, TH2, and TH16. Moreover, we used two different cell lines exclusively expressing LDH‐A or LDH‐B, that is, MCF7 and BxPC3, respectively. In MCF7 cells, the [mRNALDH‐A]/[mRNALDH‐B] ratio is indeed equal to ca. 150 (Figure 9a), whereas in BxPC3 cells the messenger coding for LDH‐A was not detected (Figure 9a). Therefore, by comparing the decrease, if any, of the lactate concentration secreted by these two cell lines the selectivity of peptides acting against LDH‐A or LDH‐B can be conveniently estimated. When the MCF7 cell line is considered, the linear TH16 and the cyclic TH2 tetrapeptide performed equally, being both responsible for a concentration of secreted lactate 20% lower than that detected in their absence (Figure 9b). […] It should indeed be noted that the assays with cells were performed in the presence of lipofectamine (see Section 5). […] Accordingly, it seems likely that lipofectamine is effective in assisting the penetration of the TH16 and TH2 peptides into cells, with this action of lipofectamine being much weaker when dealing with a larger molecule, that is, an octapeptide.
To evaluate the competence of peptides in inhibiting the action of LDH‐A in cultured cells, two human cell cultures were used: MCF7 and BxPC3, isolated from breast and pancreatic adenocarcinoma, respectively. […]
The competence of peptides in inhibiting LDH in cultured cells was tested by assessing the concentration of lactate released by MCF7 and BxPC3 cell cultures. […] The concentration of lactate released in the Krebs–Ringer buffer was determined after 4 h of incubation at 37°C, using the colorimetric assay previously reported (Rossi et al., [2023]). […]

With `CC(=O)C(=O)O` [pyruvate] as the compound, how does the “K m for pyruvate, tetrameric LDH‐A” value [1] read?
Its value is 271 ± 40 µM and 271 µM.

And the “K m for pyruvate, monomeric LDH‐A (assembled monomers)” value [2]?
Its value is 561 ± 74 µM and 560 µM.

And the “K m for pyruvate, tetrameric enzyme” value ([3]; ref Pasti et al., 2022)?
The value was 252 µM.

What about the “K m for pyruvate, tetrameric enzyme” value ([3]; ref Pettit et al., 1981) of the same compound?
Its value is 398 µM.

With “H-GQND(OBn)-OH (SMILES NCC(=O)N[C@@H](CCC(N)=O)C(=O)N[C@@H](CC(N)=O)C(=O)N[C@@H](CC(=O)OCc1ccccc1)C(=O)O) [TH14]” as the compound, how does the “Inhibition (%) of LDH‐A activity” value [4] read?
The value was 15 ± 4%.

With “H-GQND-OBn (SMILES NCC(=O)N[C@@H](CCC(N)=O)C(=O)N[C@@H](CC(N)=O)C(=O)N[C@@H](CC(=O)O)C(=O)OCc1ccccc1) [TH6]” as the compound, how does the “Inhibition (%) of LDH‐A activity” value [4] read?
The value was 14 ± 7%.

With H-GQNGISDL-OH [TH1] as the compound, how does the “decrease of the concentration of secreted lactate” value [5] read?
Its value is “did not induce any significant effect”.

And the “inhibition of tetrameric LDH‐A activity (in words)” value [6]?
Its value is “no significant inhibition”.

What about the “catalytic action exerted by tetrameric LDH‐A in the presence of peptide” value ([6]; without peptide 433 ± 11 nM/s) of the same compound?
The value was 452 ± 19 nM/s.

And the “effect on lactate secretion” value [7]?
The value was “did not induce any significant effect”.

What about the “Inhibition (%) of LDH‐A activity” value [4] of the same compound?
The value was 36 ± 1%.

For “H-KSD[dL]-OH (SMILES CC(C)C[C@@H](NC(=O)[C@H](CC(=O)O)NC(=O)[C@H](CO)NC(=O)[C@@H](N)CCCCN)C(=O)O) [TH19]”, which “Inhibition (%) of LDH‐A activity” value [4] is on record?
Its value is 4 ± 3%.

For H‐Gly‐Gln‐Asn‐Asp‐OH [TH16], which “decrease of the concentration of secreted lactate” value [5] is on record?
The value was 20%.

What about the “effect on lactate production in the absence of lipofectamine” value ([5]; MCF7, peptide without lipofectamine) of the same compound?
Its value is “negligible and not significant effects”.

What about the “effect on lactate secretion” value [7] of the same compound?
Its value is “no significant differences”.

And the “Inhibition (%) of LDH‐A activity” value [4]?
Its value is 22 ± 2%.

With H‐Lys‐Ser‐Asp‐Leu‐OH [TH18] as the compound, how does the “Inhibition (%) of LDH‐A activity” value [4] read?
The value was 5 ± 6%.
